The text below walks through data of ChEMBL document CHEMBL5715954, “Silencing c-Myc translation as a therapeutic strategy through targeting PI3Kδ and CK1ε in hematological malignancies” (Blood, 2017).

Structures are written as SMILES.

What all share (set-up): scale not given: the % may be the effect or the level left
The target of assay [1] is Calcium/calmodulin-dependent protein kinase kinase 1 (Homo sapiens) (UniProt Q8N5S9). Kind of assay: Inhibition of human CAMKK1 assessed as enzyme activity at 1 uM using myelin basic protein as substrate preincubated for 20 mins followed by [gamma-33P]-ATP addition and measured after 120 mins by radiometric Hot-SpotSM Kinase assay relative to control.
Chain of Calcium/calmodulin-dependent protein kinase kinase 1 (Homo sapiens) (Q8N5S9 whole entry, looked up): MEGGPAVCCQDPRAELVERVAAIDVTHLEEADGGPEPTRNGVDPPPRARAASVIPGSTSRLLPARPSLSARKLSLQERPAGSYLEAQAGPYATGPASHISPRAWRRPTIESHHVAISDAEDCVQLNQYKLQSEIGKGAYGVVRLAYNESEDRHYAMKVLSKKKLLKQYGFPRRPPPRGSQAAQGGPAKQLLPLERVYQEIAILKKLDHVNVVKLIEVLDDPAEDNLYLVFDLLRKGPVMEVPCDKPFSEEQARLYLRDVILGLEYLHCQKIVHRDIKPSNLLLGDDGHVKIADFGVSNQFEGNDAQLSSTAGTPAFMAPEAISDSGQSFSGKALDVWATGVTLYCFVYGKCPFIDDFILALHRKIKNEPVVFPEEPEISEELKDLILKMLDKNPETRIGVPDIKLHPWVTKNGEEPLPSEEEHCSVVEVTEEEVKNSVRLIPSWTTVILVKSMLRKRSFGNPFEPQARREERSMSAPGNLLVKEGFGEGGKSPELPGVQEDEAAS
Assay [2] concerns the target Activated CDC42 kinase 1 (Homo sapiens) (UniProt Q07912). Kind of assay: Inhibition of human ACK1 assessed as enzyme activity at 1 uM using EAIYAAPFAKKK as substrate preincubated for 20 mins followed by [gamma-33P]-ATP addition and measured after 120 mins by radiometric Hot-SpotSM Kinase assay relative to control.
The target of assay [3] is T1, Ephrin type-A receptor 3 (Homo sapiens) (UniProt P29320).
T1 sequence (whole entry): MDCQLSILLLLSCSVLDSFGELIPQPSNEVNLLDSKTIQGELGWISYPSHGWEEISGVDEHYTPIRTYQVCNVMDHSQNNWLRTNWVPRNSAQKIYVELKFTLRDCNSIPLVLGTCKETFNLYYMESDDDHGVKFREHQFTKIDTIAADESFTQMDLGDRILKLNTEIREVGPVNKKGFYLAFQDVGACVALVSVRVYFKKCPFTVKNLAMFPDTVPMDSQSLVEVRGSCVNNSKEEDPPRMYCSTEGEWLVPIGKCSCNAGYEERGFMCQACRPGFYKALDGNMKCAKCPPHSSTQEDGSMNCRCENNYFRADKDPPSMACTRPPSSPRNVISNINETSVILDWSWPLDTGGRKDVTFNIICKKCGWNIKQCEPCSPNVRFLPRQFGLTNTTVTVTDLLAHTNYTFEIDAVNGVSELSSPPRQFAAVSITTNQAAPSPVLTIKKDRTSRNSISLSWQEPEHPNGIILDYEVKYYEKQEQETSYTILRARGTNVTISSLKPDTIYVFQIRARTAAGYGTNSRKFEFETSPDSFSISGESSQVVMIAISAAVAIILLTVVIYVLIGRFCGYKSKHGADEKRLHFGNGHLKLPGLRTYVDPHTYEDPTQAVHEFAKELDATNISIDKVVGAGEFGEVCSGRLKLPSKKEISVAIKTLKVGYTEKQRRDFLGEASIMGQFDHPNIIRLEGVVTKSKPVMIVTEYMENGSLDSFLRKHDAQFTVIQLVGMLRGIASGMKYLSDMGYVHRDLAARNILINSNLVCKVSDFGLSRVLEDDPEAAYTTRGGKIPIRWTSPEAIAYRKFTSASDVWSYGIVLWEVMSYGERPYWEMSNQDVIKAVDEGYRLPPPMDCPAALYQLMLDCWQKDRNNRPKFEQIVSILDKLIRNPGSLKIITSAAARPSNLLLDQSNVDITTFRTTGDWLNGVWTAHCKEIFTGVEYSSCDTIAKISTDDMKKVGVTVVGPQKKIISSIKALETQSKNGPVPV
The assay can be described thus: Inhibition of human EPHA3 assessed as enzyme activity at 1 uM using poly[Glu:Tyr] (4:1) as substrate preincubated for 20 mins followed by [gamma-33P]-ATP addition and measured after 120 mins by radiometric Hot-SpotSM Kinase assay relative to control.

Assay [4] addresses Casein kinase I isoform gamma-1 (Homo sapiens) (UniProt Q9HCP0). The assay can be described thus: Inhibition of human CK1g1 assessed as enzyme activity at 1 uM using KRRRAL[pS]VASLPGL as substrate preincubated for 20 mins followed by [gamma-33P]-ATP addition and measured after 120 mins by radiometric Hot-SpotSM Kinase assay relative to control.
Assay [5] concerns the target Angiopoietin-1 receptor (Homo sapiens) (UniProt Q02763). Kind of assay: Inhibition of human TIE2 assessed as enzyme activity at 1 uM using poly[Glu:Tyr] (4:1) as substrate preincubated for 20 mins followed by [gamma-33P]-ATP addition and measured after 120 mins by radiometric Hot-SpotSM Kinase assay relative to control.
Assay [6] addresses T2, Ephrin type-B receptor 2 (Homo sapiens) (UniProt P29323).
T2 sequence (whole entry): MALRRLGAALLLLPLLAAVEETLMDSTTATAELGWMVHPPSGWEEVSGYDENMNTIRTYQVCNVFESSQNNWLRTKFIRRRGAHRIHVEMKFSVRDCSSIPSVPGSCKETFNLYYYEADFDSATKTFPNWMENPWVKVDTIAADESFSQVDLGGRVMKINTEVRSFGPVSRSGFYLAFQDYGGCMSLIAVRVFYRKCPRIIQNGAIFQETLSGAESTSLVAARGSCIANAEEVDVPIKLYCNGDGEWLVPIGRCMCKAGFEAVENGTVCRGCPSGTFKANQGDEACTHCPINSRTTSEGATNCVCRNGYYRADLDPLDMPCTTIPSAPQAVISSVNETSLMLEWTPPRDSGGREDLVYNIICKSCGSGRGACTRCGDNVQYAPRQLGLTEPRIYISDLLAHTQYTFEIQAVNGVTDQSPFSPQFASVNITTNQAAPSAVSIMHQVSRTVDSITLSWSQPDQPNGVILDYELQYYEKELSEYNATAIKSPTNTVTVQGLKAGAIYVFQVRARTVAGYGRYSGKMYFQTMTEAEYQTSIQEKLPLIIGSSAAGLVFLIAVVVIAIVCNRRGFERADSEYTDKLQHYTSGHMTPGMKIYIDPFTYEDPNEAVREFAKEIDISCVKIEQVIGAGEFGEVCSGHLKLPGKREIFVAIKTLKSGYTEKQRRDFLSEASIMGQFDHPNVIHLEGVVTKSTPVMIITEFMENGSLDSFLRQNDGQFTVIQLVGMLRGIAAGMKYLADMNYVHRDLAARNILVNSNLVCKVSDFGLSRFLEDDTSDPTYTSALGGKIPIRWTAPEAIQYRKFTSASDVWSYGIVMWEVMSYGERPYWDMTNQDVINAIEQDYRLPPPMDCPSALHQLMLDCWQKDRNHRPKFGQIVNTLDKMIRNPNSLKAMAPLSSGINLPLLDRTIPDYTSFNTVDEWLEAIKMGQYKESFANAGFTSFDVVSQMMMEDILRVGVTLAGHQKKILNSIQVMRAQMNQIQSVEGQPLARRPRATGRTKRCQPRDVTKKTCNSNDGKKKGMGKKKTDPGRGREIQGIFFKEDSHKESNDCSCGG
Kind of assay: Inhibition of human EPHB2 assessed as enzyme activity at 1 uM using poly[Glu:Tyr] (4:1) as substrate preincubated for 20 mins followed by [gamma-33P]-ATP addition and measured after 120 mins by radiometric Hot-SpotSM Kinase assay relative to control.

The target of assay [7] is Serine/threonine-protein kinase SBK1 (Homo sapiens) (UniProt Q52WX2). Kind of assay: Inhibition of human SBK1 assessed as enzyme activity at 1 uM using LCGRTGRRNSI as substrate preincubated for 20 mins followed by [gamma-33P]-ATP addition and measured after 120 mins by radiometric Hot-SpotSM Kinase assay relative to control.
Chain of Serine/threonine-protein kinase SBK1 (Homo sapiens) (Q52WX2 whole entry): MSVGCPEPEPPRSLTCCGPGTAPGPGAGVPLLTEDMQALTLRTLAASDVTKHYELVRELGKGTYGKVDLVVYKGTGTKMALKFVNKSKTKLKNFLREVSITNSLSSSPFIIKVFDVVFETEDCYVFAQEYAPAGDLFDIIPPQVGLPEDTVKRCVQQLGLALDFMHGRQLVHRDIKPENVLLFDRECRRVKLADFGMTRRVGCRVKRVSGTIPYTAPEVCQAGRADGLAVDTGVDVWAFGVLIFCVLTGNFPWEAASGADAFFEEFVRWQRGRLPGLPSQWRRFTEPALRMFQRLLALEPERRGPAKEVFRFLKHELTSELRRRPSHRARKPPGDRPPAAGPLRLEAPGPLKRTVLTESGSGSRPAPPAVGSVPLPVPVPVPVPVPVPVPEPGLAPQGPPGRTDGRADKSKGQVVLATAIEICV
The target in assay [8] is SRSF protein kinase 3 (Homo sapiens) (UniProt Q9UPE1). The assay can be described thus: Inhibition of human MSSK1 assessed as enzyme activity at 1 uM using GRSRSRSRSR as substrate preincubated for 20 mins followed by [gamma-33P]-ATP addition and measured after 120 mins by radiometric Hot-SpotSM Kinase assay relative to control.
Chain of SRSF protein kinase 3 (Homo sapiens) (Q9UPE1 whole entry): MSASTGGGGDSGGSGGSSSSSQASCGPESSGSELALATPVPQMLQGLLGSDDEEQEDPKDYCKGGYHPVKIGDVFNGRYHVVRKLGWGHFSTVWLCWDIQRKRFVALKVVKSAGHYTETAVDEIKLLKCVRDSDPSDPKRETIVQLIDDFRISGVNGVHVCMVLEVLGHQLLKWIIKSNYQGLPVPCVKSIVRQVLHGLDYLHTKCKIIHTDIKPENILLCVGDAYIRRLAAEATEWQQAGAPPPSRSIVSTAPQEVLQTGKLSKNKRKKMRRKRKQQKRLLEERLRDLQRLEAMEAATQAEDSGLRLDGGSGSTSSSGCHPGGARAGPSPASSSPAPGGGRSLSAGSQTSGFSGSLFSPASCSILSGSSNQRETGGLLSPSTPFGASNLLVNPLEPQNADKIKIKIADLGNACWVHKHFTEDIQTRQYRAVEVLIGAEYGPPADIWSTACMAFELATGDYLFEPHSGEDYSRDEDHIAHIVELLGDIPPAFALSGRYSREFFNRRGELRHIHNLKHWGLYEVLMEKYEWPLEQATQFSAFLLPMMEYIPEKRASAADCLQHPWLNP

Chain of Casein kinase I isoform gamma-1 (Homo sapiens) (Q9HCP0 whole entry, looked up, canonical isoform): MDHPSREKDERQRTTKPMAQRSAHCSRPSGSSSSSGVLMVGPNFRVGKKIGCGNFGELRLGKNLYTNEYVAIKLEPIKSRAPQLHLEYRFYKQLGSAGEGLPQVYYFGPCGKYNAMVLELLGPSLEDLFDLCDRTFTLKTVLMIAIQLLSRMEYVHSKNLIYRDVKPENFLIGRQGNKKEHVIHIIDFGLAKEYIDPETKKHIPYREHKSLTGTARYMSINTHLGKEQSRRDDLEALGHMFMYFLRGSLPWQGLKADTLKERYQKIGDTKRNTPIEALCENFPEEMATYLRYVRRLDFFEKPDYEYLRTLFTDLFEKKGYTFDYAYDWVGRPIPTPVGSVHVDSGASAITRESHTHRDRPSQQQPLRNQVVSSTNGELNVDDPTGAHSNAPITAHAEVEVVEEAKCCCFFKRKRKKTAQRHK
Chain of Activated CDC42 kinase 1 (Homo sapiens) (Q07912 whole entry, looked up): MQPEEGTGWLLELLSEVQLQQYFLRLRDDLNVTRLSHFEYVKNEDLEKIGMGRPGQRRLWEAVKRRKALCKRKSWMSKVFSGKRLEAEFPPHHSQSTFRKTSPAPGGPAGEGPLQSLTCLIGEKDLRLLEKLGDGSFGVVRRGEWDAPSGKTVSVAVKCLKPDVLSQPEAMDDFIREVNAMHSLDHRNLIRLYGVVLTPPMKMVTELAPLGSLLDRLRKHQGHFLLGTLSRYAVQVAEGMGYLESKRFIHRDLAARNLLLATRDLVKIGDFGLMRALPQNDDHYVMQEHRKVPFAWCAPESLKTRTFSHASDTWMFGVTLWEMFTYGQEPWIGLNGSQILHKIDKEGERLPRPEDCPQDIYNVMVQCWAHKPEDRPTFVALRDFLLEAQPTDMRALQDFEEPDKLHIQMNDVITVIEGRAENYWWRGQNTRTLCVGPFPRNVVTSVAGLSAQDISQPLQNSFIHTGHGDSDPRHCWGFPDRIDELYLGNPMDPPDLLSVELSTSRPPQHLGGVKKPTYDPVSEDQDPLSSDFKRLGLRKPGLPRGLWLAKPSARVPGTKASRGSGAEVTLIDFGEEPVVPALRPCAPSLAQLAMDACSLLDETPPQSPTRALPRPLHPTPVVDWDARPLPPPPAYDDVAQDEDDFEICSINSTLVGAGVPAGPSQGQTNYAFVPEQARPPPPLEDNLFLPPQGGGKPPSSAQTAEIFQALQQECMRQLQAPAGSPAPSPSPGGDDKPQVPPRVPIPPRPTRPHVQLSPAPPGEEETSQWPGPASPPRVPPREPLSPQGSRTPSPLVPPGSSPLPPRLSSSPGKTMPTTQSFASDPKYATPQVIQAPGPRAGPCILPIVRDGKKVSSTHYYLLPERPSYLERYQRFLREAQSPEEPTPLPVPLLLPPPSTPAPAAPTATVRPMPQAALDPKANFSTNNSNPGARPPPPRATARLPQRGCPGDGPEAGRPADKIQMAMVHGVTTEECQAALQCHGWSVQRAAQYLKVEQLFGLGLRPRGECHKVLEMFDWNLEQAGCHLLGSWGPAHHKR
Chain of Angiopoietin-1 receptor (Homo sapiens) (Q02763 whole entry): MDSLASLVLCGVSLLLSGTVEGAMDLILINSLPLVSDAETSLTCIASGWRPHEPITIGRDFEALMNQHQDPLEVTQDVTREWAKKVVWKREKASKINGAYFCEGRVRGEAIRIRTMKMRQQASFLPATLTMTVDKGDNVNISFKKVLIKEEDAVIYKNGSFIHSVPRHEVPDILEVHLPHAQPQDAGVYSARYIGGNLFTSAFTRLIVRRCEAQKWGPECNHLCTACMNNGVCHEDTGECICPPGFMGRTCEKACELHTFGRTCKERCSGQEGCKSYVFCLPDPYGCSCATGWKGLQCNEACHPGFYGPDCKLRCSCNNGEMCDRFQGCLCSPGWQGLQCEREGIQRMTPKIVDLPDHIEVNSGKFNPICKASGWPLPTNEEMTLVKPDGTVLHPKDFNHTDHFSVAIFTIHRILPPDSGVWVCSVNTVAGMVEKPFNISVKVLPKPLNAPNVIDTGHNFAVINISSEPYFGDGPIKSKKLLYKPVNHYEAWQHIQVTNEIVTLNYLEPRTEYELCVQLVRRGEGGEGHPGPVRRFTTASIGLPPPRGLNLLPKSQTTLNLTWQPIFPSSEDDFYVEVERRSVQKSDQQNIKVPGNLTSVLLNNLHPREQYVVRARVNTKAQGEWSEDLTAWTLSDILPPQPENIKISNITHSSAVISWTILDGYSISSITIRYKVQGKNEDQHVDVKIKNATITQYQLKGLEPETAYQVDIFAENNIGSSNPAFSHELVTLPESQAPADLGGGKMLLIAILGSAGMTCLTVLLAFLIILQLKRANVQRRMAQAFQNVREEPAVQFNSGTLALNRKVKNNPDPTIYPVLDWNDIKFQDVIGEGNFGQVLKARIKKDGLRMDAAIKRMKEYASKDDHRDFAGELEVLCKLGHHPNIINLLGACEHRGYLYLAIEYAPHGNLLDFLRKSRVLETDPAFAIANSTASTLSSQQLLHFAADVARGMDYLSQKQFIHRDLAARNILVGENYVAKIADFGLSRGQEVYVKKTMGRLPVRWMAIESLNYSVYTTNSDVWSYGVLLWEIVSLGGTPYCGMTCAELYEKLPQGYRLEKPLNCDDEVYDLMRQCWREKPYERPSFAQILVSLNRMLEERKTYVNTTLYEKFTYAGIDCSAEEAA

Regarding `C[C@H](Nc1ncnc2nc[nH]c12)c1cc2cccc(Cl)c2c(=O)n1-c1ccccc1`, the Activity was 98.1% in assay [1]; 95.5% in assay [2]; 93.9% in assay [3]; 98.3% in assay [4]; 97.3% in assay [5]; 92% in assay [6]. The results for the Activity in assay [7] and in assay [8] were 99.5% and 102%, respectively.

Regarding `CC[C@H](Nc1ncnc2[nH]cnc12)c1nc2cccc(F)c2c(=O)n1-c1ccccc1`, the Activity amounted to 105% in assay [1]; 90.7% in assay [2]; 93.4% in assay [3]; 105% in assay [4]; 97.9% in assay [5]; 91.9% in assay [6]. For the same molecule, the Activity in assay [7] and in assay [8] was 101% throughout.

For the molecule `CC(C)Oc1ccc(-c2nn([C@@H](C)c3oc4ccc(F)cc4c(=O)c3-c3cccc(F)c3)c3ncnc(N)c23)cc1F` [UMBRALISIB], the Activity was found to be 102% in assay [1]; 93.6% in assay [2]; 92.9% in assay [3]; 97.6% in assay [4]; 92% in assay [5]; 95.9% in assay [6]. Moreover, the Activity was 98.8% in assay [7] and 107% in assay [8].
